Measured values: patent US20060167110A1 (priority 1995, published 2006)

Experiments:
MAO-B [1] = biological target: T1, MAO-B (Cavia porcellus, UniProt P58028); experiment: MAO-B inhibition in guinea pig hippocampal homogenates in vitro; type: biochemical
T1 construct: MAO-B (^14C-phenylethylamine) by human platelets and guinea pig hippocampal homogenates; from tissue; host or cells: guinea pig hippocampal homogenates
T1 sequence (P58028 1-520): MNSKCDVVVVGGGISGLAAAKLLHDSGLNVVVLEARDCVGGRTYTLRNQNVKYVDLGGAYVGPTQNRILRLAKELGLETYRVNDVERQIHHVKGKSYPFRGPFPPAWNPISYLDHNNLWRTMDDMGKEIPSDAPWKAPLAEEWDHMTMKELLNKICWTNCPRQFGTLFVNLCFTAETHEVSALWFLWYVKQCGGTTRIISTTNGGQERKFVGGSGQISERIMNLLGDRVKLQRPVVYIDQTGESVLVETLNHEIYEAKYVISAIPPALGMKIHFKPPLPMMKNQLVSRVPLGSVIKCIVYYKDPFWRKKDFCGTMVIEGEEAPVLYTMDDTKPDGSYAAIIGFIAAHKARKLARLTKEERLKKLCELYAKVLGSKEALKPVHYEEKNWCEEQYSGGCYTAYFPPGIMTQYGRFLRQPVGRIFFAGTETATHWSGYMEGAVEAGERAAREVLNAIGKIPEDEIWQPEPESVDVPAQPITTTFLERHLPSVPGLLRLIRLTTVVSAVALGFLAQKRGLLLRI
Source text: (§1) Human platelet MAO is comprised exclusively of the type-B isoform of the enzyme. […] The present study also examined the two enantiomers of DMS for inhibitory activity with respect to the MAO-A and MAO-B in guinea pig hippocampal tissue. Guinea pig brain tissue is an excellent animal model for studying brain dopamine metabolism, the enzyme kinetics of the multiple forms of MAO and the inhibitory properties of novel agents that interact with these enzymes. The multiple forms of MAO in this animal species show similar kinetic properties to those found in human brain tissue. Finally, the test agents were administered to guinea pigs and the extent to which they might act as inhibitors of brain MAO in vivo was assessed.
(§2) In vitro: The test system utilized the in vitro conversion of specific substrates of MAO-A (^14C-serotonin) in guinea pig hippocampal homogenates or MAO-B (^14C-phenylethylamine) by human platelets and guinea pig hippocampal homogenates. […] A percent inhibition was calculated from these values.

MAO-B [2] = biological target: T1, MAO-B; experiment: In vivo brain MAO-B inhibition in guinea pig hippocampus after 5 daily s.c. doses; conditions: preliminary studies
Description: FIG. 20: In vivo MAO-B Inhibition in Guinea Pig Hippocampus. […] Animals were then sacrificed and the MAO-B activity in the hippocampus portion of the brain was determined. […] The plots were used to estimate the ID50 dosage for each agent.
Each enantiomer of DMS was administered in vivo by subcutaneous injection once a day for five consecutive days, and inhibition of brain MAO-B activity was then determined.

MAO-A [3] = biological target: T2, MAO-A (Rattus norvegicus, UniProt P21396); experiment: MAO-A inhibition in rat brain tissue; type: biochemical; design: from tissue; host or cells: rat cortex mitochondrial-rich fractions
T2 sequence (P21396 1-526): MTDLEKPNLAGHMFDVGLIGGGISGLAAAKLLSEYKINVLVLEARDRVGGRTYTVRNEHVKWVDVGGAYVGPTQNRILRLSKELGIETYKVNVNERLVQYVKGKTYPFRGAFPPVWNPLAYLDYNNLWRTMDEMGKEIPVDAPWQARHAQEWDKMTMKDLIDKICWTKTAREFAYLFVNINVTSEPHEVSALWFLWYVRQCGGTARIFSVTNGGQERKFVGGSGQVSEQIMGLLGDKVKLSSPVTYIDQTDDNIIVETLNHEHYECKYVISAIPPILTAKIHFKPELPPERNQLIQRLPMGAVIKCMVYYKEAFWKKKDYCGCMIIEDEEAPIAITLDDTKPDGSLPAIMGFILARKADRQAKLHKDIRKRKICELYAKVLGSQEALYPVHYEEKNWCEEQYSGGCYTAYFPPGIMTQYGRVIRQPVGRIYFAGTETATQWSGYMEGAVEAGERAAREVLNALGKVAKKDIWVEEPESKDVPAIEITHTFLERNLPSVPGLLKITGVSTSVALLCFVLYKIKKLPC

MAO-A [4] = biological target: T3, MAO-A (Cavia porcellus, UniProt H0UVA2); experiment: In vivo MAO-A inhibition in guinea pig cortex (hippocampus) after 5 s.c. treatments; conditions: sc, read-out: inhibition of MAO-A activity
T3 sequence (H0UVA2 1-461): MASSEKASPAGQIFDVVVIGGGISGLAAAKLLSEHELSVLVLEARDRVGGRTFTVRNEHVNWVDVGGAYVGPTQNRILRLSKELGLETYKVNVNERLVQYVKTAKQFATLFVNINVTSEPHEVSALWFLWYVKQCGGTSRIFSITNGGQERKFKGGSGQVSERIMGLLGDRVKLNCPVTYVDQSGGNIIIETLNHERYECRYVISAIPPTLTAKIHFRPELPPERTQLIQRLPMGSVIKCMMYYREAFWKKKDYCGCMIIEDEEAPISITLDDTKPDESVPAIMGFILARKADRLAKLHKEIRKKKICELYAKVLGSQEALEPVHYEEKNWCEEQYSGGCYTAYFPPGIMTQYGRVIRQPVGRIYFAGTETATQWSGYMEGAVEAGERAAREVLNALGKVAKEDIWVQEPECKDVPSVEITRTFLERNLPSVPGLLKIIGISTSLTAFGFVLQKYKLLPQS
Description: Hippocampal homogenates containing enzyme were prepared, and assays in vitro for MAO-A and MAO-B activity.

[5] = tested on: rat embryonic mesencephalic cells; experiment: [3H]dopamine uptake, medium change (glutamate receptor dependent) model of cell death
Description: Preparations are then added to 10 ml Ecoscint (National Diagnostics) and counted in a scintillation spectrometer.
In these experiments, cells were plated and allowed to stabilize for several days.

MAO-A [6] = biological target: T3, MAO-A; experiment: MAO-A inhibition in guinea pig hippocampal homogenates in vitro; type: biochemical; design: specific substrates of MAO-A (^14C-serotonin) in guinea pig hippocampal homogenates; from tissue; host or cells: guinea pig hippocampal homogenates
Source text: as §1, §2

cerebral infarction = conditions: given orally; patients with subarachnoid hemorrhage and cerebral vasospasm; cited from earlier work

With `C#CCNC(C)Cc1ccccc1` (single isomer, unassigned) [R(−)DMS, R(−)-desmethylselegiline] the IC50 (MAO-B [1]; IC50 Values for the Inhibition of MAO-B, Guinea Pig Hippocampal Cortex) was 0.06 µM, the “reduction in potency compared to selegiline, MAO-B, Guinea Pig Hippocampal Cortex” value (MAO-B [1]; figure in parentheses) was 60 nM (60) and the “times less potent than selegiline, brain MAO-B in vivo” value (MAO-B [2]) was “about 10 times”. The IC50 (MAO-A [3]) was 70 µM, the “times less potent than selegiline in inhibiting MAO-A” value (MAO-A [3]; in vitro, rat brain tissue) was “approximately 39 times” and the inhibition at 3 mg/kg (MAO-A [4]) was 29.8%. The “neuron protection by measurement of dopamine uptake (FIG. 15)” value (shortened to “neuron protection by measurement”) ([5]; 5 μM) was “neuron protection”, the “more axonal growth and terminal axonal survival compared to untreated control cells” value ([5]; 10 μM, medium change model) was 40% and the “neuron protection by measurement” value ([5]; 50 μM) was “neuron protection”. For the same compound, the IC50 (MAO-A [6]) was 50 µM, the “MAO-A % Reduction 0 ± SEM” value (MAO-A [6]; Concentration 300 nM) was 4.8 ± 2.1% and the “MAO-A % Reduction 0 ± SEM” value (MAO-A [6]; Concentration 1 μM) was 4.2 ± 1.5%. For the same compound, the “MAO-A % Reduction 0 ± SEM” value (MAO-A [6]; Concentration 3 μM) was 10.5 ± 2.0%, the “MAO-A % Reduction 0 ± SEM” value (MAO-A [6]; Concentration 10 μM) was 19.0 ± 1.3% and the “MAO-A % Reduction 0 ± SEM” value (MAO-A [6]; Concentration 100 μM) was 64.2 ± 1.5%. For the same compound, the “MAO-A % Reduction 0 ± SEM” value (MAO-A [6]; Concentration 1 mM) was 96.5 + 1.2% and the “reduction in potency compared to selegiline, MAO-A” value (MAO-A [6]; figure in parentheses, times less potent) was 20.

For `COCCOC(=O)C1=C(C)NC(C)=C(C(=O)OC(C)C)C1c1cccc([N+](=O)[O-])c1` (stereo not shown) [Nimodipine], the “incidence of cerebral infarction” value (cerebral infarction) is listed as “lower by one third”.

With `C#CCN(C)Cc1ccccc1` [Pargyline, pargyline, reference compound] the “neuron protection by measurement” value ([5]; at the concentrations used (0.5, 5 and 50 μM)) was “did not appear to offer any protection”.
